Test [1] in a line: blockers of dynein-driven microtubule transport – imaging, high-content imaging, dose response (AID 463136).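 Also: mouse mammary adenocarcinoma 3617.4 cells expressing GFP-tagged rat glucocorticoid receptor.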 As to inhibition: reference of the scale not given here. Particulars: HCS imaging, dynein-mediated cargo transport inhibition; inhibition at max concentration; at 50 µM; stronger effect = higher value.
In test [2] the test system is HCS imaging, dynein-mediated cargo transport inhibition. The description is as above.

Records with an inconclusive call do not appear. Active and inactive are the calls of the source. No rule for the calls is given here.

Consider `O=[N+]([O-])c1ccc(NCc2ccccc2)c2nonc12`, for which the inhibition in test [1] came out at 99.5%. In addition, in test [2], the IC50 was 26.9 µM.

With `COc1ccc(-c2csc3nc(-c4cccnc4)nc(Cl)c23)cc1OC`, the inhibition in test [1] stood at 84.4%. Besides, the IC50 in test [2] was 27.5 µM.

Turning to `COc1ccc(CCn2c(C)cc(C(=O)CCl)c2C)cc1OC`, the inhibition in test [1] stood at 82.1%. Besides, in test [2], the IC50 was 9.84 µM.

As for `COC(=O)CS(=O)(=O)c1nnc([C@H](Cc2ccccc2)NC(=O)OC(C)(C)C)o1`, in test [1], the inhibition was 34.1%. For the same compound, the IC50 in test [2] was > 50 µM (inactive).

For `N#CC12COC3(CCCCC3C1(C#N)C#N)OC2=N` (stereo not drawn), the inhibition in test [1] amounted to 8.2%. In addition, the IC50 in test [2] is > 50 µM (inactive).

With `CCOC(=O)C1=C(Cc2ccc(OC)cc2)C(=O)c2ccccc2C1=O`, in test [1], the inhibition amounted to 21.6%. Further, in test [2], the IC50 was > 50 µM (inactive).

Turning to `N#CC(C#N)=C1C=C2C=C(N3CCCCCC3)CCC2CC1` (stereo not drawn), the inhibition in test [1] stood at 99.2%. The IC50 in test [2] is 36.2 µM.

Turning to `N#CC(C#N)=C1C=C2C=C(N3CCOCC3)CCC2CC1` (stereo not drawn), the inhibition in test [1] worked out at 99%. Also, the IC50 in test [2] was 42.8 µM.

On to `CCC(=O)Nc1cccc(C(=O)/C=C/c2ccc(F)cc2)c1`, for which, in test [1], the inhibition was 74.9%. The IC50 in test [2] was 34.1 µM.

`N#CC(C#N)=C1C=CC=CN1/C(=C\c1ccco1)C(=O)c1ccc(Br)cc1`: the inhibition in test [1] is 33.6%. In test [2], the IC50 was > 50 µM (inactive).

In the case of `COc1ccccc1-[n+]1c(C)cc(/C=C2\Sc3ccccc3N2C)cc1C`, the inhibition in test [1] turned out to be 92%. Also, in test [2], the half-inhibitory concentration (IC50) was 9.31 µM.

`CCCCc1c(C)c(C#N)c2nc3ccccc3n2c1Cl`: the inhibition in test [1] is -60.6%. In addition, in test [2], the IC50 is > 50 µM (inactive).

In the case of `Cn1c(=O)c(Nc2ccc(Cl)cc2)c2c3c(cccc31)C(=O)c1ccccc1-2`, in test [1], the inhibition stood at 97.8%. In addition, the 50% inhibitory concentration (IC50) in test [2] was 31 µM.

As for `N=c1oc2c3c4c(cc2cc1C(=O)Nc1ccccc1)CCCN4CCC3`, the inhibition in test [1] came out at 99%. The IC50 in test [2] was > 50 µM (inactive).

For `CCCn1nc([N+](=O)[O-])c(C(C#N)c2nc3ccccc3s2)c(Cl)c1=O` (stereo not drawn), in test [1], the inhibition is 97%. For the same compound, in test [2], the IC50 was 14.6 µM.

With `Cc1nc([N+](=O)[O-])c(Br)n1Cc1ccccc1`, the inhibition in test [1] came to 84.8%. Moreover, the IC50 in test [2] is 6.35 µM.

For the compound `CN1CCN(S(=O)(=O)c2ccc(Sc3nnnn3-c3ccccc3)c([N+](=O)[O-])c2)CC1`, the inhibition in test [1] is 75.4%. The half-inhibitory concentration (IC50) in test [2] was 17.5 µM.

Consider `CN1C(=O)NC(=O)/C(=C/c2ccc([N+](=O)[O-])s2)C1=O`, for which, in test [1], the inhibition turned out to be 84.7%. Besides, in test [2], the 50% inhibitory concentration (IC50) is 12 µM.

Regarding `Cn1c(=O)c(NCCc2ccccc2)c2c3c(cccc31)C(=O)c1ccccc1-2`, the inhibition in test [1] turned out to be 19%. The IC50 in test [2] is > 50 µM (inactive).

For `O=c1[nH]sc2cc(F)ccc12`, in test [1], the inhibition stood at 91.3%. The IC50 in test [2] was 12 µM.

For the compound `O=C(CN(c1cccc(C(F)(F)F)c1)S(=O)(=O)c1ccc(Cl)c([N+](=O)[O-])c1)NCc1ccccc1`, in test [1], the inhibition turned out to be 15.7%. In addition, in test [2], the IC50 was > 50 µM (inactive).

In the case of `O=c1c(Cl)c(Cl)cnn1Cc1ccc(F)cc1`, the inhibition in test [1] worked out at 80.4%. In test [2], the IC50 was 10.3 µM.

`O=C(Nc1ccc(F)cc1)c1nn(-c2ccccc2)c(=O)cc1Cl`: the inhibition in test [1] came out at 76.4%. Moreover, in test [2], the IC50 was 35.7 µM.

With `COc1ccc(NC(=O)/C(Cl)=C(/Cl)S(=O)Cc2ccccc2)cn1` (stereo not drawn), the inhibition in test [1] turned out to be 64.4%. In addition, the half-inhibitory concentration (IC50) in test [2] is 19.5 µM.

For `CN1CCN(C2=C(Cl)C(=O)C(c3cnc(N4CCCCC4)s3)=C(Cl)C2=O)CC1`, the inhibition in test [1] is 94.7%. In addition, in test [2], the IC50 was 33.3 µM.

Consider `O=[N+]([O-])c1c(NCCCO)cc(Sc2nc3ccccc3s2)c2nonc12`, for which, in test [1], the inhibition is -7.73%. For the same compound, the IC50 in test [2] is > 50 µM (inactive).

For `O=C(Nc1ccccc1)c1nnsc1S(=O)c1ccc(Cl)cc1` (stereo not drawn), in test [1], the inhibition came to 32.1%. Besides, the IC50 in test [2] is > 50 µM (inactive).

In the case of `O=C(/C(=C/c1ccc(Cl)cc1)c1nc2ccccc2[nH]1)c1ccccc1`, in test [1], the inhibition was determined as 21.4%. The IC50 in test [2] is > 50 µM (inactive).

For `O=C(CCl)Nc1cc(-c2ccccc2)nn1-c1ccccc1`, in test [1], the inhibition was found to be 81.4%. In test [2], the IC50 is 11.8 µM.

Turning to `CC(C)(C)NC(=S)N/N=C\c1ccc(-c2ccc([N+](=O)[O-])cc2)o1`, in test [1], the inhibition worked out at 3.06%. In test [2], the IC50 was > 50 µM (inactive).

Regarding `CC[n+]1c(/C=C/C=C/N(C(C)=O)c2ccccc2)sc2cc(OC)ccc21`, the inhibition in test [1] came to 93.8%. Besides, in test [2], the IC50 is 6.65 µM.

On to `Cc1cc(-c2n[nH]c(=S)n2/N=C/C(Br)=C/c2ccccc2)n[nH]1`, for which the inhibition in test [1] was 82.9%. Moreover, in test [2], the IC50 is 16.5 µM.

With `COCCN(C(=O)CCl)C(C(=O)NC1CCCCC1)c1ccccc1C` (stereo not drawn), the inhibition in test [1] stood at 79.5%. Besides, the half-maximal inhibitory concentration (IC50) in test [2] was 24.8 µM.

For the compound `COC(CNC(=O)c1ccc2c3c(onc13)-c1ccccc1C2=O)OC`, the inhibition in test [1] worked out at 99.6%. In test [2], the IC50 is 29.3 µM.
